Test results from ChEMBL document CHEMBL1128664, “FPL 64176: The effect of the chain length separating the two aryl groups on calcium agonist activity” (Bioorg Med Chem Lett, 1995).
The source made the active and inactive calls. No cut-off for these calls is given here.

Key:
GH3 [1] = assay: Concentration required for 84% enhancing calcium influx intoGH 3 cells was determined; format: functional, cell-based; conditions: Rattus norvegicus
GH3 [2] = assay: Effect on K+ stimulated [Ca2+] influx in GH3 cells at 10e-5 concentration; format: functional, Rattus norvegicus
GH3 [3] = assay: Effect on K+ stimulated [Ca2+] influx in GH3 cells at 10e-6 concentration; format: functional, Rattus norvegicus
GH3 [4] = assay: Effect on K+ stimulated [Ca2+] influx in GH3 cells at 10e-7 concentration; format: functional, Rattus norvegicus
GH3 [5] = assay: Effect on K+ stimulated [Ca2+] influx in GH3 cells at 10e-8 concentration; format: functional, Rattus norvegicus
GH3 [6] = assay: Maximal stimulation of Ca 2+ uptake was determined; no significant effect; format: functional, cell-based; conditions: Rattus norvegicus
GH3 [7] = assay: Concentration required for enhancing calcium influx into GH 3 cells was determined; format: functional, cell-based; conditions: Rattus norvegicus
GH3 [8] = assay: Maximal stimulation of Ca 2+ uptake was determined; format: functional, Rattus norvegicus

Compound	EC50 (GH3 [1]) [nM]	Increase (GH3 [2]) [%]	Increase (GH3 [3]) [%]	Increase (GH3 [4]) [%]	Increase (GH3 [5]) [%]	Stimulation (GH3 [6])	EC50 (GH3 [7]) [nM]	Stimulation (GH3 [8]) [%]
COC(=O)c1c(C)[nH]c(C)c1C(=O)c1ccccc1CCCCc1ccccc1	10000	20	80	20	0	inactive		
COC(=O)c1c(C)[nH]c(C)c1C(=O)c1ccccc1CCCc1ccccc1		220	160	0	-8		614	265
COC(=O)c1c(C)[nH]c(C)c1C(=O)c1ccccc1Cc1ccccc1		280	240	140	20		140	298
COC(=O)c1c(C)[nH]c(C)c1C(=O)c1ccccc1-c1ccccc1		0	-8	-8	0	inactive		
COC(=O)c1c(C)[nH]c(C)c1C(=O)c1ccccc1CCc1ccccc1		350	340	120	0		207	420
